Source: US20230234920A1, “Azirine Containing Compounds as Anti-Angiogenesis Agents and a Process for the Preparation Thereof” (COUNCIL OF SCIENTIFIC & INDUSTRIAL RESEARCH, priority 2020, published 2023)
pIC50: −log10 of the molar value. Like-named read-outs stand apart in the source and are kept apart here. Blank lines part the entries; values can stand above or below the molecule they belong to.

Legend:
HUVECs = assay: Capillary-like tube formation assay (tubulogenesis); type: cell-based, human; conditions: for pIC50: Homo sapiens, HUVEC, read-out: IC50 value; for tubule formation: 6 h
Experimental: FIG. 2 represents effect of Compound 1 on capillary tube formation of HUVECs. Endothelial cells in Matrigel were incubated with ECM basal medium in the presence of compound 1 at the indicated concentrations for 6 h. Cell viability was assessed by Calcein-AM dye added few min. before the completion of 6 h. then photographs at 10×magnification were taken using an inverted microscope. The tubule length of HUVECs was quantified by Leica QWin software. Tubule network formation is expressed as a percentage of that vehicle (0.1% DMSO) treated cells (control).
FIG. 9 represents effect of racemic mixture (chiral isomer 1-1 and chiral isomer 2-1) of Compound 1 on capillary tube formation of HUVECs. Endothelial cells seeded in matrigel were incubated at the indicated concentrations of compound 1 racemic mixtures (1-1 and 2-1) with ECM basal medium for 6 h. Calcein-AM treatment was added to the ECs few minutes before completion of 6 h and pictures were captured using an inverted microscope at 10×magnification. The tubular structures of HUVECs were measured using Leica QWin software and tubulogenesis was expressed as a % of that vehicle (0.1% DMSO) treated cells (control) well.
HUVEC cells were incubated with or without sunitinib (20 nM) for 6 h at indicated concentrations of chiral isomers of Compound 1 (1-1 and 2-1). Photographs were taken using an inverted microscope at 10×magnification after Calcein-AM treatment to the ECs few minutes before completion of 6 h. The tubule length of HUVECs was quantified by Leica QWin software represented as a % of that vehicle (0.1% DMSO) treated cells (control) well.
To examine the effect of Compound 1 on angiogenesis, capillary tube formation assay was performed on regular or reduced growth factor Matrigel, taking VEGF (50 ng/mL) treated cells as a positive control and sunitinib (50 nM) as a negative control (FIG. 2). HUVECs seeded onto the matrigel with compound 1 at different concentrations of (10 μM, 5 μM, 1 μM, 800 nM, 500 nM, 250 nM, 125 nM, 75 nM, 50 nM, 25 nM and 10 nM) were incubated for six hours.
HUVECs (Human Umbilical Vein Endothelial Cells) were seeded onto the pre-coated matrigel (CORNING; 354230) in 96 wells plate at the rate of 11000 cells/well in incomplete ECM basal medium. Control group received vehicle, VEGF at 50 ng/mL as a positive and sunitinib at 50 nM as a negative control were used. Compound 1 at different dose concentrations (10 μM, 5 μM, 1 μM, 800 nM, 500 nM, 250 nM, 100 nM, 75 nM, 50 nM and 25 nM) were employed on seeded HUVECs in incomplete medium. Post 6 h of incubation Calcein-AM (Invitrogen) was added to all the respective groups and then the tubule pattern was observed and photographs were taken using an inverted fluorescent microscope (DM 6000, Leica Microsystems, USA). Relative tubule lengths were measured using Leica Q-Win software version 3.5.1. (Leica Microsystems, Switzerland).

[1] = Intramuscular pharmacokinetic study of bulk compound 1 and chiral isomers; type: in vivo, male Sprague Dawley (SD) rats; conditions: IM 20 mg/kg
Experimental: In vivo pharmacokinetic study was performed in male Sprague Dawley (SD) rats (n=4). Intramuscular (IM) formulation of bulk of compound 1 as well as chiral isomer-1 and chiral isomer-2 was prepared by dissolving accurately weighed quantity of compound 1 (20 mg) in 1 mL of olive oil followed by vortexing for 2 min and sterilize through syringe filter. Blood samples were collected from the retro orbital plexus of rats under light ether anesthesia into microfuge tubes containing heparin as an anti-coagulant at 0.25, 0.5, 1, 3, 5, 7, 9, 24, 30, 48 and 72 hours post-dosing after intramuscular dose. Plasma sample was harvested by centrifuging the blood at 13000 rpm for 10 min on Sigma 1-15 K (Frankfurt, Germany) and stored frozen at −70±10° C. until bioanalysis. Each plasma sample (100 μl) was processed using protein precipitation method using 200 μl acetonitrile containing medicarpine as internal standard (I.S.) as protein precipitant, and 10 μl of the supernatant was injected for LC-MS/MS.

[2] = Intramuscular pharmacokinetic study of chiral isomers 1 and 2; type: in vivo, male Sprague Dawley (SD) rats; conditions: IM 20 mg/kg
Experimental: In vivo pharmacokinetic study was performed in male Sprague Dawley (SD) rats (n=4). Intramuscular (IM) formulation of compound 1 Chiral 1 and 2 were prepared by individually dissolving accurately weighed quantity of compound 1, chiral isomers 1 and 2 (20 mg) in 1 mL of olive oil followed by vortexing for 2 min and sterilize through syringe filter. Blood samples were collected from the retro orbital plexus of rats under light ether anesthesia into microfuge tubes containing heparin as an anti-coagulant at 0.25, 0.5, 1, 3, 5, 7, 9, 24, 30, 48 and 72 hours post-dosing after intramuscular dose. Plasma sample was harvested by centrifuging the blood at 13000 rpm for 10 min on Sigma 1-15 K (Frankfurt, Germany) and stored frozen at −70±10° C. until bioanalysis. Each plasma sample (100 μl) was processed using protein precipitation method using 200 μl acetonitrile containing medicarpine as internal standard (I.S.) as protein precipitant, and 10 μl of the supernatant was injected for LC-MS/MS.

[3] = endothelial tubule network assay, anti-angiogenic activity

Structure (SMILES): COc1ccc(CCC2=NC2C#N)cc1 (centres unmarked) [Compound 48, 3-(4-Methoxyphenethyl)-2H-azirine-2-carbonitrile]
pIC50 (HUVECs): 6.60

Structure (SMILES): CCOP(=O)(OCC)C1N=C1CCc1ccc(OC)cc1 (centres unmarked) [Compound 49, Diethyl (3-(4-methoxyphenethyl)-2H-azirin-2-yl)phosphonate]
pIC50 (HUVECs): 6.60

Structure (SMILES): CCOC(=O)C1N=C1CCc1ccc(OC2CCOC2)cc1 (centres unmarked) [Compound 50, Ethyl 3-(4-((tetrahydrofuran-3-yl)oxy)phenethyl)-2H-azirine-2-carboxylate]
pIC50 (HUVECs; [3]): 6.60

Structure (SMILES): COc1ccc(CCC2=NC2c2nnn[nH]2)cc1 (centres unmarked) [Compound 51, 5-(3-(4-Methoxyphenethyl)-2H-azirin-2-yl)-1H-tetrazole]
pIC50 (HUVECs; [3]): 7.00
remarks (HUVECs; remark on IC50 versus sunitinib): comparable to sunitinib

Plasma concentration ([1]; 0.25 h): 409 ± 150 ng/mL
Plasma concentration ([1]; 0.5 h): 767.6 ± 50 ng/mL
Plasma concentration ([1]; 1 h): 557 ± 260 ng/mL
Plasma concentration ([1]; 3 h): 745 ± 120 ng/mL
Plasma concentration ([1]; 5 h): 762 ± 340 ng/mL
Plasma concentration ([1]; 7 h): 536 ± 170 ng/mL
Plasma concentration ([1]; 9 h): 463 ± 370 ng/mL
Plasma concentration ([1]; 24 h): 323 ± 40 ng/mL
Plasma concentration ([1]; 30 h): 246 ± 120 ng/mL
Plasma concentration ([1]; 48 h): 169.3 ± 100 ng/mL
Plasma concentration ([1]; 72 h): 44.3 ± 6 ng/mL
AUC0-72 ([1]; mean ± S.D., n = 4): 19540 ± 3260 ng·h/mL
AUC0-∞ ([1]; mean ± S.D., n = 4): 20644 ± 2977 ng·h/mL
Cl ([1]; mean ± S.D., n = 4): 16.4 ± 2.17 mL/min/kg
Cmax ([1]; mean ± S.D., n = 4): 945 ± 143 ng/mL
Tmax ([1]; mean ± S.D., n = 4): 3 ± 2 h
Vd ([1]; mean ± S.D., n = 4): 24.497 ± 6.339 L/kg
t1/2 ([1]; mean ± S.D., n = 4): 17.11 ± 2.454 h
MRT ([1]; mean ± S.D., n = 4, in h (unit assumed)): 22.671 ± 4.539
Tmax [2]: 3 h
Plasma concentration ([2]; 0.25 h): 6640 ± 2170 ng/mL
Plasma concentration ([2]; 0.5 h): 7440 ± 400 ng/mL
Plasma concentration ([2]; 1 h): 9270 ± 1960 ng/mL
Plasma concentration ([2]; 3 h): 10820 ± 1130 ng/mL
Plasma concentration ([2]; 5 h): 7500 ± 560 ng/mL
Plasma concentration ([2]; 7 h): 4300 ± 620 ng/mL
Plasma concentration ([2]; 9 h): 2000 ± 660 ng/mL
Plasma concentration ([2]; 24 h): 180 ± 13 ng/mL
Plasma concentration ([2]; 30 h): 130 ± 15 ng/mL
Plasma concentration ([2]; 48 h): 76 ± 4 ng/mL
Plasma concentration ([2]; 72 h): 44 ± 6 ng/mL
AUC0-72 ([2]; mean ± S.D., n = 4): 84900 ± 6020 ng·h/mL
AUC0-∞ ([2]; mean ± S.D., n = 4): 85480 ± 6100 ng·h/mL
Cl ([2]; mean ± S.D., n = 4): 3.83 ± 0.17 mL/min/kg
Cmax ([2]; mean ± S.D., n = 4): 10820 ± 1130 ng/mL
Vd ([2]; mean ± S.D., n = 4): 3.9 ± 0.24 L/kg
t1/2 ([2]; mean ± S.D., n = 4): 9.14 ± 0.12 h
Structure (SMILES): CCOC(=O)[C@H]1N=C1CCc1ccc(OC)cc1 [chiral isomer (2-1)]
tubule formation (HUVECs; 100 nM combined with sunitinib at 20 nM): around 30%
tubule formation (HUVECs; 250 nM): 100%
tubule formation (HUVECs; 500 nM): 50%
tubule formation (HUVECs; 500 nM, listed as isomer (2-1)): 50%
tubule formation (HUVECs; 1 μM): 50%
